# Results published in patent US20080070264A1, “Intracellular Signaling-Induced Ret-Independent Gdnf Receptor-Effected Morphological Changes” (JPMORGAN CHASE BANK N.A., priority 2003, published 2008).
# B1: ^125I-GDNF: GDNF enzymatically iodinated with [125I]NaI with lactoperoxidase (protein, UniProt P39905 78-211, looked up)
# Glial cell line-derived …: SPDKQMAVLPRRERNRQAAAANPENSRGKGRRGQRGKNRGCVLTAIHLNVTDLGLGYETKEELIFRYCSGSCDAAETTYDKILKNLSRNRRLVSDKVGQACCRPIAFDDDLSFLDDNLVYHILRKHSAKRCGCI
# modifications: 125I label
# notes: GDNF enzymatically iodinated with [125I]NaI with lactoperoxidase
# B2: PSPN: persephin, the ligand for GFRα4, not known to interact with GFRα1 (protein, UniProt O60542 22-156, looked up)
# Persephin: WGPDARGVPVADGEFSSEQVAKAGGTWLGTHRPLARLRRALSGPCQLWSLTLSVAELGLGYASEEKVIFRYCAGSCPRGARTQHGLALARLQGQGRAHGGPCCRPTRYTDVAFLDDRHRWQRLPQLSAAACGCGG
# How the values were obtained:
# [1] = tested on: wild-type MDCK cells; assay: Branching tubule formation assay in 3-D collagen gel; type: cell-based, dog; conditions: 3-D collagen gel
# Description: (§1) From the total amount of cysts in the field, the percentage of cysts with long branches was calculated. Only branches with lengths of more than two cyst diameters were counted.
# (§2) Trypsinized cells were mixed 1:3 with collagen type I solution and plated. MEM with 10% FCS was overlaid on the gels with or without GDNF (Cephalon Inc. or R&D Systems, Inc.) or 50 ng/ml HGF. Cells in collagen were cultured for 3 days; GDNF-containing medium was changed daily. For quantification, cells were cultured for 3 days, fixed by 3% glutaraldehyde in PBS and counted under a light microscope.
# (§3) To avoid the effect of possible contamination of GDNF preparation, recombinant GDNF from two different sources were tested. One tested GDNF was expressed in baculovirus-infected insect cells (Cephalon Inc.), the other was expressed in mouse myeloma cell line NSO (R&D Systems, Inc.).
# [2] = tested on: MET; assay: MET phosphorylation in MDCK cells (immunoprecipitation, Western blotting); type: cell-based, dog
# Description: (§4) To detect MET activation, GFRα1- and RET/GFRα1-expressing MDCK or SHEP cells were starved overnight in MEM or RPMI 1640 with 1% FCS, respectively, and in serum-free medium for 2 h prior the induction. After 15 min incubation at 37° C. with GDNF (at indicated concentrations) or with 50 ng/ml HGF, cells were lysed as described. Cleared cell lysates were incubated with anti-MET antibodies (Santa Cruz Biotechnologies, Inc.) overnight at 4° C. Immunoprecipitates were collected with protein A-SEPHAROSE (Amersham Pharmacia Biotech), washed, separated by SDS-PAGE and transferred to HYBOND-ECL membranes. Membranes were immunoblotted with anti-phospho-tyrosine antibodies (Upstate Group Inc.) or anti-MET antibodies.
# Alternatively, 30 μg of protein was incubated overnight at 4° C. with 10 μl Immobilized Phospho-Tyrosine Monoclonal Antibodies (Cell Signalling, NEB). Immunocomplexes were washed and analysed as described.
# (§5) For all experiments, densitometry and quantifications were performed using TINA 2.0 program (Raytest, Straubenhardt, Germany).
# (§6) For the inhibition of MET, and Src activation, SHEP or GFRα1- and RET/GFRα1-expressing MDCK cells were starved as described above. 1 or […] of the inhibitor PP2 (Calbiochem) was added 30 min before induction by GDNF or HGF. DMSO (dimethyl sulfoxide) was added to the positive controls together with GDNF or HGF.
# [3] = tested on: wild-type MDCK cells; conditions: Stoker et al., 1987; cited from earlier work
# [4] = biological target: MET (Homo sapiens, UniProt P08581); conditions: Villa-Moruzzi et al., 1993; cited from earlier work
# Sequence of MET (Homo sapiens, UniProt P08581) (P08581 25-1390): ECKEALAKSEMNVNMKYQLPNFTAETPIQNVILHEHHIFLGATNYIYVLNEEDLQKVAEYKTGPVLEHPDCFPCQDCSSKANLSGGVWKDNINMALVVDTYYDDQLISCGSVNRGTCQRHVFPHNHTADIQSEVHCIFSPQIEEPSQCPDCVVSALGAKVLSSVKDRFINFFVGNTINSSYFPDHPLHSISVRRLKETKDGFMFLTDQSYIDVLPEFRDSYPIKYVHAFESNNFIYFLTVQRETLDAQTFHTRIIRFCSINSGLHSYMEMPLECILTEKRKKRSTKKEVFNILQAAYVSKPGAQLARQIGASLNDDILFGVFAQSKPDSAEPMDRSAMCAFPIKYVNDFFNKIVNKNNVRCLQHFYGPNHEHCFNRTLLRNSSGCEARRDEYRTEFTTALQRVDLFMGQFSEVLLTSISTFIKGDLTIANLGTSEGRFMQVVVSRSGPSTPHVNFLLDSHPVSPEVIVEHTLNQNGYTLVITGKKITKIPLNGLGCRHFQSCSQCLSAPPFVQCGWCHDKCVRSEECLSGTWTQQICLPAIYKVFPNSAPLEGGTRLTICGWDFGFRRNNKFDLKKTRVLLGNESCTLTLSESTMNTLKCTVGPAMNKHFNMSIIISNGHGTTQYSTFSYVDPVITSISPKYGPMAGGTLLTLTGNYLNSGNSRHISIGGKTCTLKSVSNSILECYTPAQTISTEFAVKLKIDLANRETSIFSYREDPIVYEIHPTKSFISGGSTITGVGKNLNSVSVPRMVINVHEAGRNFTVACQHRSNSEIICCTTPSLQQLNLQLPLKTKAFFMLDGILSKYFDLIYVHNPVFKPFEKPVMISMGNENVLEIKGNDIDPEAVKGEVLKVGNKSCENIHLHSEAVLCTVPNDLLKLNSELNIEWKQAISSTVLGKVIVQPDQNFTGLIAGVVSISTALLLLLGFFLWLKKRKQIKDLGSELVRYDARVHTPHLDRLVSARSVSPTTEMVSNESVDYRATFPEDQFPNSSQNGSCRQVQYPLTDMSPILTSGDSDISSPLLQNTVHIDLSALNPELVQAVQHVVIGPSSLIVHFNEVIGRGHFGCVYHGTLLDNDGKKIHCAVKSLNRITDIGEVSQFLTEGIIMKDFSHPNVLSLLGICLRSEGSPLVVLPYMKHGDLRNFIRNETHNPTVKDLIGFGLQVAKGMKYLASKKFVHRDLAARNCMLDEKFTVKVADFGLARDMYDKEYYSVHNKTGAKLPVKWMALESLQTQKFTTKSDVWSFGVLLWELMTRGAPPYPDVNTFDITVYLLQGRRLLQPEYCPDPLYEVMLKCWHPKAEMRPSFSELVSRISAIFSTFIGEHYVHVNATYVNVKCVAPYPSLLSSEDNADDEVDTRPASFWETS
# [5] = biological target: T1, MET (Chlorocebus aethiops, UniProt Q2IBA6); assay: 125I-labelled GDNF and HGF binding, chemical crosslinking, anti-MET immunoprecipitation
# T1 construct: different combinations of the MET β-subunit (140 kDa), Met-αβ heterodimer (190 kDa) and HGF complexes; endogenous in cells; host or cells: COS7 cells (wild type for 125I-HGF; transfected with pc3-GFRα1/GFP for 125I-GDNF)
# T1 sequence (Q2IBA6 25-1381): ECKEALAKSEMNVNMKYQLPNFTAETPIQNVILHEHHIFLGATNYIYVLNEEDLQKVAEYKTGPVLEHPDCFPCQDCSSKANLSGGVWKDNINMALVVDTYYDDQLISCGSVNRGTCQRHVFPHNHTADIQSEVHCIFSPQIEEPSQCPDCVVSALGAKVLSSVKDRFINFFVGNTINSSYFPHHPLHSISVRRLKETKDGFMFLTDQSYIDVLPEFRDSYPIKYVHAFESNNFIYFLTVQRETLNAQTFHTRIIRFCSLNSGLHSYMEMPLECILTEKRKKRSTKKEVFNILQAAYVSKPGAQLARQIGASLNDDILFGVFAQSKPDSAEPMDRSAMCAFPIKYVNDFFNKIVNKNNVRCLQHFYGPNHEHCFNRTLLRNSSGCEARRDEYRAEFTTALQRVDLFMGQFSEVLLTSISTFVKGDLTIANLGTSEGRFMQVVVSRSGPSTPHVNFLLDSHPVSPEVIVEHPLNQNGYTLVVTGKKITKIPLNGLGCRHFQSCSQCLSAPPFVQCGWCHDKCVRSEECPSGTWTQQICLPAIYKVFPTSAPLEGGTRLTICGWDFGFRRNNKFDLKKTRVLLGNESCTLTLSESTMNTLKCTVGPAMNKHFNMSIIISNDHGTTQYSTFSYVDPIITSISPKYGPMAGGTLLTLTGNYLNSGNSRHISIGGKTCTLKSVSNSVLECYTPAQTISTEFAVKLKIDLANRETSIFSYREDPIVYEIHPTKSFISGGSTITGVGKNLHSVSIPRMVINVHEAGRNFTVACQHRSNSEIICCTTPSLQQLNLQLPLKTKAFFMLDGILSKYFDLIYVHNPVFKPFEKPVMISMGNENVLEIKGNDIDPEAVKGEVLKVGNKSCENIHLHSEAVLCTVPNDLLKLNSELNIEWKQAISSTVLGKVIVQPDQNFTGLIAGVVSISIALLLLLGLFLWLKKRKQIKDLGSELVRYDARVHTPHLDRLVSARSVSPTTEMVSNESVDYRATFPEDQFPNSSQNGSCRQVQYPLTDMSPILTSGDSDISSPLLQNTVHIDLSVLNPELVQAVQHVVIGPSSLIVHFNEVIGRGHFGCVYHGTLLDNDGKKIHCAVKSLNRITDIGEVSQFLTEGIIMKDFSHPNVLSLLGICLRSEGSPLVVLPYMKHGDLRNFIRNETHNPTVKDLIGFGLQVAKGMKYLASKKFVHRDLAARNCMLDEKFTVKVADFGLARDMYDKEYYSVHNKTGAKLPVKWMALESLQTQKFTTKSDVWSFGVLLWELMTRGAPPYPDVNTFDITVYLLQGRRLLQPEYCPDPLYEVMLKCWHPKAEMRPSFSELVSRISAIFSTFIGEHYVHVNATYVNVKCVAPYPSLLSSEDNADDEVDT
# Description: Binding of ^125I-GDNF to COS7 cells transfected with GFRα1, and ^125-HGF to wild-type COS7, followed by cross-linking with EDC together with sulfo-NHS. Inmunoprecipitates with anti-MET antibodies (IP-Met) were analysed by SDS-PAGE under reducing conditions. ^125I-HGF α subunit and proHGF are marked by arrows. ^125I-HGF/MET complexes are denoted by arrow heads. The results are representative of five independent experiments.
# GDNF and HGF were enzymatically iodinated with [^125I]NaI (Amersham Pharmacia Biotech) with lactoperoxidase to a specific activity of 100.000 cpm/ng as described (31). COS7 cells were transfected with pc3-GFRα1/GFP two days prior the assay. 2 nM of ^125I-GDNF or 1 nM of ^125I-HGF were allowed to bind to cell monolayers for 1-2 h on ice in binding buffer (DMEM/15 mM HEPES, pH 7.5; 0.2% BSA), washed, and chemically cross-linked for 30 min at room temperature using BS^3 ([Bis(sulfosuccinimidyl)suberate]), DSS ((Disulfosuccinimidyl)suberate), DSP (3,3-Dithio-bis-(sulfosuccinimidyl)propionate) or EDC ((1-Ethyl-3-[3-dimethylaminopropyl]carbodiimide Hydrochloride)) with sulfo-NHS (N-Hydroxysulfosuccinimide) (Pierce). The non-specific binding of GDNF was estimated by the amount of ^125I-GDNF binding to cells in the presence of 300 n M unlabeled GDNF. Cells were washed, lysed and immunoprecipitated with anti-MET antibodies as described. Gels were dried and analyzed by phosphorimaging in a BAS Reader 1800 (Fuji).
# [6] = tested on: MET; assay: MET phosphorylation in SHEP neuroblastoma cells; type: cell-based, human; conditions: SHEP cells
# Description: FIG. 7B: SHEP cells were grown with GDNF (10 ng/ml (lanes 2-4) or 5 pg/ml (lanes 5-7)) or HGF (10 ng/ml (lanes 8-9)) in the presence of PP2 (1 μM (lanes 3 and 6) and 10 μM (lanes 4 and 7)). To exclude a possible cytotoxic effect of the solvent, DMSO was added to the controls. […] The numbers below the lane indicate the fold of induction of MET tyrosine kinase. The results are representative of three independent experiments.
# as §4, §5, §6
# [7] = tested on: GFRα1-expressing MDCK cells; assay: Branching tubule formation assay in 3-D collagen gel; type: cell-based, dog; conditions: ligand 100 ng/ml; 3-D collagen gel
# Description: as §1
# (§7) FIG. 2C: Dose-dependence of GDNF-induced branching of GFRα1- and RET/GFRα1-expressing MDCK cells. GDNF concentrations are per ml (x-axis). Results are reported as fold of branching cysts count over the non-induced control. Means±standard errors of the mean of five to eight counted fields are shown. The results are representative of five (A and B) and three (C) independent experiments, p<0.001.
# as §2, §3
# [8] = tested on: RET/GFRα1-expressing MDCK cells; assay: as above; type: cell-based, dog; conditions: ligand 100 ng/ml; 3-D collagen gel
# Description: as §1, §7, §2, §3
# [9] = GFRα1- and RET/GFRα1-expressing MDCK cells, data not shown
molecule,measurement,setting,value
HGF: hepatocyte growth factor (Sigma); binds to and activates MET receptor tyrosine kinase,branching tubule formation,[1]; HGF 50 ng/ml,only branch on exposure to HGF
same,MET phosphorylation,[2]; mock-transfected MDCK cells,only HGF phosphorylated MET
same,chemotaxis,[3],induces chemotaxis
same,concentration at which MET is saturated,[4],0.5 nM
^125I-HGF: HGF enzymatically iodinated with [125I]NaI with lactoperoxidase [reference compound],cross-linked complexes with MET,"[5]; COS7 cells, reducing conditions, positive control","approximately 200 kDa, 250 kDa and 340 kDa complexes"
"CC(C)(C)n1nc(-c2ccc(Cl)cc2)c2c(N)ncnc21 [PP2, reference compound]",effect on GDNF-induced MET activation,[2]; [9],inhibited
same,effect on HGF-induced MET phosphorylation,[2]; [9],but not the HGF-induced MET phosphorylation
same,effect on GDNF-dependent phosphorylation of MET,[6]; PP2 1 μM,strongly reduced
same,effect on HGF-induced MET phosphorylation,[6],did not affect
B1,cross-linked complexes with MET,"[5]; GFRα1-expressing MDCK, SHEP or COS7 cells, and NIH 3T3 cells transiently transfected with GFRα1, EDC with sulfo-NHS, BS3, DSS, DSP",No high molecular weight complexes were revealed
B2,branching tubule formation,[7],did not evoke branching
same,branching tubule formation,[8],did not evoke branching
same,branching tubule formation,[1]; ligand 100 ng/ml,does not induce branching
